This is an account of results in patent US9221914B2, “Agents targeting CD138 and uses thereof” (BIOTEST AG, priority 2007, dated 2015).

Test [1] relates to MOLP-8 human multiple myeloma xenografts. The test can be described thus: MOLP-8 human multiple myeloma xenograft in CB.17 SCID mice (Xenograft Mouse Experiments A, Part I). The class given is in vivo. As to the method:
In these mice, subcutaneous tumors were established (female CB.17 SCID mice) by inoculation with MOLP-8 cell suspensions. Treatment with a single bolus intravenous injection was conducted when tumor volumes reached an average 113 mm^3. Changes in tumor volume and body weight were monitored twice per week.
Female CB.17 SCID mice, five weeks old, were obtained from Charles River Laboratories.
MOLP-8, a human multiple myeloma cell line, was supplied from ATCC.
Each mouse was inoculated with 1×10^7 MOLP-8 cells subcutaneously into the area under the right shoulder. The total volume was 0.2 ml per mouse, in which the ratio of serum-free medium to matrigel (BD Bioscience, Bedford, Mass.) was 1/1 (v/v). Prior to treatment, the xenograft tumors were monitored daily and were allowed to become established.
Eleven days after tumor cell inoculation, 42 mice were selected based on tumor volumes and body weights. […] The forty-two mice were randomly divided into seven groups (A-G) of six animals each based on tumor volume.
Each of six mice in Group A received 200 μl of PBS as vehicle control.
All agents were intravenously administered as a single bolus injection through a lateral tail vein with a 1 ml syringe fitted with a 27 gauge, ½ inch needle.
(§1) Tumor size was measured twice per week in three dimensions using the LabCat System (Tumor Measurement and Tracking, Innovative Programming Associated, Inc., Princeton, N.J.). The tumor volume in mm^3 was calculated using the methodology described in Tomayko et al., Cancer Chemother.
In general terms: A xenograft is tissue or cells of one species grown in another, often human tumour cells in immunodeficient mice.

The next test relates to MOLP-8 tumor xenografts. The test can be described thus: Bulky MOLP-8 tumor xenograft model in SCID mice (Part II / Xenograft Mouse Experiments B). Type of test: in vivo. To be noted: 450 μg/kg dose; mean time to reach 160 mm^3 minus mean time of control group. On the procedure:
In a second set of experiments, MOLP-8 cells (1.5×10^7 cells per mouse), suspended in a 50:50 mixture of serum free media and matrigel were injected subcutaneously in the area under the right shoulder in 100 μl. […] Each mouse in the control group (n=6) received 0.2 ml of sterile PBS administered into the lateral tail vein (i.v.) in a bolus injection. All treatment doses were based on conjugated maytansinoid. […] Mice were randomized into eleven groups (n=6) by tumor volume using the LabCat Program. […] The mice were dosed based on the individual body weight.
as §1
In this set of experiments, eighty-five mice were inoculated with MOLP-8 cells (1.5×10^7 cells/mouse) subcutaneously in the right shoulder.

On to B-B4-SPP-DM1 [reference compound], for which, in test [1] (250 μg/kg single i.v. dose), the “homogeneity of anti-tumor activity in individual mice” value is “more heterogeneously and therefore less predicable”. Also, the “median tumor volume over time post-inoculation” value in test [1] (250 μg/kg single i.v. dose, data not shown) was “relatively better results for B-B4-SPP-DM1 than for nBT062-SPP-DM1”. Besides, the “effect on tumor growth compared with PBS-treated animals” value in test [1] (single i.v. bolus, 250 μg/kg (nBT062 antibody […])) is given as “marked delay in tumor growth”.

Take “nBT062-DM1: nBT062 conjugate with DM1, linker not stated at this place; TGD matches nBT062-SMCC-DM1”: the “TGD (days), tumor growth delay” value in the test with MOLP-8 tumor xenografts turned out to be 18 days.
